Patent publication US20070203216A1, “METHOD OF TREATING INFLAMMATORY DISEASES” (priority 2006, published 2007)
“Also recorded” adds a separate entry of the source.

How the values were obtained:
[1] = tested on: chronic mild stress rats; assay: Chronic mild stress model in rats, serum marker analysis; conditions: CMS rats; for reversal of stress-induced alterations in serum markers: versus non-stressed controls;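 as to all read-outs here: terminal serum drawn from the tail of rats 24 h after the final drug dose, profiled within a panel of roughly 60 blood markers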
Experimental: At the end of the present study, terminal serum samples were collected for marker analysis to evaluate the effects of stress with and without drug on the levels of about 60 blood markers.
Serum samples were withdrawn from the tail, without stunning, during the daytime (09:00-17:00) 24 hrs after the last drug injection. Blood was collected into BD vacutainers containing clot activator and gel for serum preparation, inverted 5 times and maintained on ice until centrifugation at 3000 rpm for 10 min at 4° C. Serum was decanted, placed on ice, and at the end of the day stored at −80° C.

[2] = tested on: formalin pain model; conditions: U.S. Patent Application Publication No. 2005/0288371; cited from earlier work
[3] = 1st study, 5 mg/kg, serum, median
[4] = 2nd study, 10 mg/kg, serum, median

With CN(C)CCC[C@@]1(c2ccc(F)cc2)OCc2cc(C#N)ccc21 [ESC, Escitalopram, reference compound] the “Apo A1 (Apolipoprotein A1)” value [1, 3] was 8.40 µg/mL, the “CRP (C Reactive Protein)” value [1, 3] was 1060.00 µg/mL and the Eotaxin [1, 3] was 1300.00 pg/mL. For the same compound, the “FGF-9 (Fibroblast Growth Factor-9)” value [1, 3] was 0.90 ng/mL, the “GCP-2 (Granulocyte Chemotactic Protein-2)” value [1, 3] was 0.21 ng/mL and the “Growth Hormone” value [1, 3] was 1.38 ng/mL. For the same compound, the “IL-1alpha (Interleukin-1alpha)” value [1, 3] was 15.40 pg/mL, the “IL-2 (Interleukin-2)” value [1, 3] was 38.80 pg/mL and the “IL-4 (Interleukin-4)” value [1, 3] was 51.70 pg/mL. The “IL-7 (Interleukin-7)” value [1, 3] was 0.22 ng/mL, the “IL-10 (Interleukin-10)” value [1, 3] was 317.00 pg/mL and the “IL-11 (Interleukin-11)” value [1, 3] was 166.00 pg/mL. For the same compound, the “IP-10 (Inducible Protein-10)” value [1, 3] was 194.00 pg/mL, the “IgA (Immunoglobulin A)” value [1, 3] was 6.54 µg/mL and the Insulin [1, 3] was 11.30 ulU/mL. The “LIF (Leukemia Inhibitory Factor)” value [1, 3] was 67.20 pg/mL, the Leptin [1, 3] was 2.62 ng/mL and the Lymphotactin [1, 3] was 68.00 pg/mL. The “M-CSF (Macrophage-Colony Stimulating Factor)” value (“M-CSF” for short) [1, 3] was 941.00 ng/mL, the “MCP-1 (Monocyte Chemoattractant Protein-1)” value [1, 3] was 1500.00 pg/mL and the “MCP-3 (Monocyte Chemoattractant Protein-3)” value [1, 3] was 885.00 pg/mL. The “MCP-5 (Monocyte Chemoattractant Protein-5)” value [1, 3] was 0.87 pg/mL, the “MIP-1alpha (Macrophage Inflammatory Protein-1alpha)” value (“MIP-1alpha” below) [1, 3] was 244.00 ng/mL and the “MIP-1gamma (Macrophage Inflammatory Protein-1gamma)” value (“MIP-1gamma” below) [1, 3] was 11.50 ng/mL. The “MIP-2 (Macrophage Inflammatory Protein-2)” value [1, 3] was 0.09 pg/mL, the “MPO (Myeloperoxidase)” value [1, 3] was 54.60 ng/mL and the “NGAL (Lipocalin-2)” value [1, 3] was 0.22 ng/mL. For the same compound, the Osteopontin [1, 3] was 310.00 ng/mL, the “SAP (Serum Amyloid P)” value [1, 3] was 178.00 µg/mL and the “SCF (Stem Cell Factor)” value [1, 3] was 16.95 pg/mL. The “SGOT (Serum Glutamic-Oxaloacetic Transaminase)” value (“SGOT” below) [1, 3] was 0.31 µg/mL, the “TIMP-1 (Tissue Inhibitor of Metalloproteinase Type-1)” value [1, 3] was 0.22 ng/mL and the “TPO (Thrombopoietin)” value [1, 3] was 142.00 ng/mL. For the same compound, the “Tissue Factor” value [1, 3] was 0.15 ng/mL, the “VCAM-1 (Vascular Cell Adhesion Molecule-1)” value [1, 3] was 409.00 ng/mL and the “VEGF (Vascular Endothelial Cell Growth Factor)” value (“VEGF” below) [1, 3] was 106.00 pg/mL. For the same compound, the “reversal of stress-induced alterations in serum markers” value [1] was “inactive at most of these changes”.
In the case of Oc1noc2c1CCNC2 [GBX, 4,5,6,7-tetrahydroisoxazolo [5,4-c] pyridine-3-ol], the “Apo A1 (Apolipoprotein A1)” value [1, 3] is reported as 8.20 µg/mL, the “CRP (C Reactive Protein)” value [1, 3] is reported as 1140.00 µg/mL and the Cystatin-C [1, 3] is reported as 1165.00 ng/mL. For the same compound, the “FGF-9 (Fibroblast Growth Factor-9)” value [1, 3] was 0.59 ng/mL, the “GCP-2 (Granulocyte Chemotactic Protein-2)” value [1, 3] was 0.19 ng/mL and the “Growth Hormone” value [1, 3] was 7.67 ng/mL. The “IL-1alpha (Interleukin-1alpha)” value [1, 3] was 11.30 pg/mL, the “IL-2 (Interleukin-2)” value [1, 3] was 31.30 pg/mL and the “IL-4 (Interleukin-4)” value [1, 3] was 29.60 pg/mL. For the same compound, the “IL-7 (Interleukin-7)” value [1, 3] was 0.16 ng/mL, the “IL-10 (Interleukin-10)” value [1, 3] was 249.00 pg/mL and the “IL-11 (Interleukin-11)” value [1, 3] was 128.00 pg/mL. The “IL-18 (Interleukin-18)” value [1, 3] was 0.07 ng/mL, the “IP-10 (Inducible Protein-10)” value [1, 3] was 138.00 pg/mL and the “IgA (Immunoglobulin A)” value [1, 3] was 5.91 µg/mL. For the same compound, the Insulin [1, 3] was 8.88 ulU/mL, the “LIF (Leukemia Inhibitory Factor)” value [1, 3] was 53.90 pg/mL and the Leptin [1, 3] was 2.59 ng/mL. The Lymphotactin [1, 3] was 53.80 pg/mL, the “M-CSF” value [1, 3] was 865.00 ng/mL and the “MCP-1 (Monocyte Chemoattractant Protein-1)” value [1, 3] was 1185.00 pg/mL. For the same compound, the “MCP-3 (Monocyte Chemoattractant Protein-3)” value [1, 3] was 655.00 pg/mL, the “MCP-5 (Monocyte Chemoattractant Protein-5)” value [1, 3] was 0.77 pg/mL and the “MIP-1alpha” value [1, 3] was 173.00 ng/mL. For the same compound, the “MIP-1gamma” value [1, 3] was 7.95 ng/mL, the “MIP-2 (Macrophage Inflammatory Protein-2)” value [1, 3] was 0.08 pg/mL and the “MPO (Myeloperoxidase)” value [1, 3] was 20.80 ng/mL. The “NGAL (Lipocalin-2)” value [1, 3] was 0.17 ng/mL, the Osteopontin [1, 3] was 396.00 ng/mL and the “SAP (Serum Amyloid P)” value [1, 3] was 133.00 µg/mL. For the same compound, the “SCF (Stem Cell Factor)” value [1, 3] was 14.85 pg/mL, the “SGOT” value [1, 3] was 0.21 µg/mL and the “TIMP-1 (Tissue Inhibitor of Metalloproteinase Type-1)” value [1, 3] was 0.16 ng/mL. The “TPO (Thrombopoietin)” value [1, 3] was 147.00 ng/mL, the “Tissue Factor” value [1, 3] was 0.10 ng/mL and the “VCAM-1 (Vascular Cell Adhesion Molecule-1)” value [1, 3] was 361.00 ng/mL. The “VEGF” value [1, 3] was 81.00 pg/mL, the “Apo A1 (Apolipoprotein A1)” value [1, 4] was 6.20 µg/mL and the “Beta-2 Microglobulin” value [1, 4] was 38.00 µg/mL. For the same compound, the “CRP (C Reactive Protein)” value [1, 4] was 1030.00 µg/mL, the Clusterin [1, 4] was 108.00 µg/mL and the Cystatin-C [1, 4] was 696.00 ng/mL. For the same compound, the Eotaxin [1, 4] was 1072.00 pg/mL, the “FGF-9 (Fibroblast Growth Factor-9)” value [1, 4] was 1.70 ng/mL and the “Factor VII” value [1, 4] was 0.30 ng/mL. For the same compound, the “GCP-2 (Granulocyte Chemotactic Protein-2)” value [1, 4] was 0.29 ng/mL, the GST-Mu [1, 4] was 1190.00 ng/mL and the “Growth Hormone” value [1, 4] was 3.10 ng/mL. The “IL-1beta (Interleukin-1beta)” value [1, 4] was 0.56 ng/mL, the “IL-2 (Interleukin-2)” value [1, 4] was 22.00 pg/mL and the “IL-5 (Interleukin-5)” value [1, 4] was 0.24 ng/mL. For the same compound, the “IL-7 (Interleukin-7)” value [1, 4] was 0.06 ng/mL, the “IL-10 (Interleukin-10)” value [1, 4] was 362.00 pg/mL and the “IL-18 (Interleukin-18)” value [1, 4] was 0.43 ng/mL. For the same compound, the “IP-10 (Inducible Protein-10)” value [1, 4] was 41.00 pg/mL, the “IgA (Immunoglobulin A)” value [1, 4] was 4.30 µg/mL and the Insulin [1, 4] was 14.50 ulU/mL. The “LIF (Leukemia Inhibitory Factor)” value [1, 4] was 67.00 pg/mL, the Leptin [1, 4] was 1.35 ng/mL and the Lymphotactin [1, 4] was 63.00 pg/mL. The “M-CSF” value [1, 4] was 1400.00 ng/mL, the “MCP-1 (Monocyte Chemoattractant Protein-1)” value [1, 4] was 1020.00 pg/mL and the “MCP-3 (Monocyte Chemoattractant Protein-3)” value [1, 4] was 659.00 pg/mL. The “MCP-5 (Monocyte Chemoattractant Protein-5)” value [1, 4] was 0.72 pg/mL, the “MDC (Macrophage-Derived Chemokine)” value [1, 4] was 0.12 pg/mL and the “MIP-1alpha” value [1, 4] was 127.00 ng/mL. The “MIP-1beta (Macrophage Inflammatory Protein-1beta)” value [1, 4] was 0.01 pg/mL, the “MIP-1gamma” value [1, 4] was 19.00 ng/mL and the “MIP-2 (Macrophage Inflammatory Protein-2)” value [1, 4] was 0.22 pg/mL. The “MIP-3beta (Macrophage Inflammatory Protein-3beta)” value [1, 4] was 29.70 ng/mL, the “MPO (Myeloperoxidase)” value [1, 4] was 533.00 ng/mL and the Myoglobin [1, 4] was 520.00 ng/mL. For the same compound, the “NGAL (Lipocalin-2)” value [1, 4] was 0.15 ng/mL, the “OSM (Oncostatin M)” value [1, 4] was 19.10 ng/mL and the Osteopontin [1, 4] was 255.00 ng/mL. The “RANTES (Regulation Upon Activation, Normal T-Cell Expressed and Secreted)” value [1, 4] was 10.60 pg/mL, the “SAP (Serum Amyloid P)” value [1, 4] was 403.00 µg/mL and the “SCF (Stem Cell Factor)” value [1, 4] was 11.30 pg/mL. The “SGOT” value [1, 4] was 8.53 µg/mL, the “TIMP-1 (Tissue Inhibitor of Metalloproteinase Type-1)” value [1, 4] was 0.24 ng/mL and the “TNF-alpha (Tumor Necrosis Factor-alpha)” value [1, 4] was 4.45 ng/mL. For the same compound, the “TPO (Thrombopoietin)” value [1, 4] was 119.00 ng/mL, the “Tissue Factor” value [1, 4] was 0.06 ng/mL and the “VCAM-1 (Vascular Cell Adhesion Molecule-1)” value [1, 4] was 353.00 ng/mL. The “VEGF” value [1, 4] was 78.00 pg/mL, the “reversal of stress-induced alterations in serum markers” value ([1]; listed as gaboxadol) was “significantly reversed the stress-induced alterations in serum markers; also recorded: dose dependently is able to reverse or partially reverse changes” and the “pain response in phase 2 of the formalin pain model” value [2] was “inhibit the pain response in phase 2”.
